Laboratory results reported in patent US20260355199A1, “COMPOSITIONS AND METHODS FOR TREATING OR PREVENTING NONALCOHOLIC STEATOHEPATITIS (NASH), ANOREXIA, DEPRESSION, ENDOMETRIOSIS, AND OTHER DISEASES OR DISORDERS” (priority 2022, published 2026).

Key:
TET3 [1] = experiment: TET3 protein in mouse peritoneal macrophages; format: cell-based; conditions: 10 μM
Description: For cultured mouse peritoneal macrophages, cells were primed with 30 ng/ml of TGF-β1 (R&D Systems, 7666-MB0-005) for 48 h (to increase TET3 expression) before Bobcat339 treatment. Bobcat339 (or DMSO) was added at a final concentration of 10 μM, followed by RNA and protein extraction at time points indicated in the figure legends.
Cells were homogenized in situ using a pipette tip in 2×SDS-sample buffer with 10% β-mercaptoethanol at RT followed by heating at 100 °C for 5 min with occasional vortexing. The samples were loaded onto a 4-15% gradient SDS gel (Bio-rad, 456-8086) (10 μL/well) and transferred to nitrocellulose membranes, followed by Western blot analysis. The antibodies used were anti-TET3 (diluted at 1:1000, GeneTex, GTX121453 for human; diluted at 1:1000, Active Motif, 61395 for mouse), anti-TET2 (diluted at 1:1000, Proteintech, 21207-1-AP for human/mouse), anti-TGF-β1 (diluted at 1:1000, Abcam, ab215715 for human), anti-Lin28A (diluted at 1:1000, Cell Signaling, 3978S), and HRP-conjugated anti-GAPDH (dilution 1:5000; Proteintech, HRP-60004). The secondary antibody was HRP-linked Anti-rabbit IgG (dilution 1:10,000; Rockland, 611-1322).

TET2 = TET2 expression in GT1-7 cells; format: cell-based, mouse; conditions: 10 μM, 6 h
Description: For Bobcat339 treatment (FIG. 15A and FIG. 15B), GT1-7 cells grown in 24-well plates at 2×10^5 cells/well were incubated with vehicle or Bobcat339 at a final concentration of 10 μM for 6 h, followed by RNA and protein extractions. For TET3 protein stability assay (FIG. 15B), GT1-7 cells in 24-well plates at 2×10^5 cells/well were incubated with vehicle or Bobcat339 at a final concentration of 10 μM for 3 hours, followed by addition of cycloheximide (CHX, Cell Signaling, 2112) at a final concentration of […] in the presence of 10 μM of Bobcat339. Proteins were harvested at 0, 1, 2, and 3 hours after addition of CHX. For TET3 expression restoration experiments (FIG. 15C and FIG. 15D), GT1-7 or SH-SY5Y cells seeded in 24-well plates at 2×10^5 cells/well were infected with Ad-GFP or Ad-TET3 at 4000 gc/cell. Following 16 h of infection, vehicle or Bobcat339 were added at a final concentration of 10 μM. Protein and RNA were isolated 48 h later and analyzed.
GT1-7 and SH-SY5Y cells in 24-well plates were collected by manual scraping in 2×SDS-sample buffer containing 1× Phosphatase inhibitor cocktail (Thermo, 78427) and 1× Protease inhibitor cocktail (Thermo, 78438), followed by heating at 100 °C for 5 min with occasional vortexing. […]

TET1 = conditions: cited from earlier work
TET3 [2] = experiment: TET3 protein stability (cycloheximide) in RAW 264.7 cells; format: cell-based, mouse; conditions: 10 μM, with cycloheximide
Description: For TET3 protein stability assay, cells in 24-well plates were incubated with vehicle or Bobcat339 at a final concentration of 10 μM for 3 hours, followed by addition of cycloheximide (CHX, Cell Signaling, 2112) at a final concentration of 50 μg/mL in the presence of 10 μM of Bobcat339. Proteins were harvested at 0, 1, 2, and 3 hours after addition of CHX.

Agrp promoter = experiment: hMeDIP-qPCR (5hmC) at the Agrp promoter in mouse ARC; format: in vivo; conditions: leptin- vs. saline-treated
Description: To assess leptin effects on suppression of hunger-induced appetite, female Cas9+ mice injected with AAV or AAV-sgTet3 bilaterally into the ARC were fasted overnight for 22 h. On the second day, mouse leptin (L3772-1MG, Sigma Aldrich) was administrated at 5 mg/kg intraperitoneally at 10:00 and pre-weighed food was placed in the cage and monitored for the following 24 h. For ChIP studies, Cas9+ mice injected with AAV or AAVsgTet3 bilaterally into the ARC were fasted overnight for 22 h. On the second day, saline or leptin (5 mg/kg) was administrated intraperitoneally at 10:00. Two hours later, ARCs were isolated for ChIP-qPCR analysis. To examine leptin-induced protein-protein interactions, Cas9+ mice were fasted overnight for 22 h. […]
The experiments were carried out using the EpiQuik hMeDIP Kit (P-1038-48, Epigentek) according to the manufacturer's instructions. […] Sheared DNA fragments (ranged in size from 200-600 bps as assessed by agarose gel electrophoresis) were immunoprecipitated using the 5hmC rabbit polyclonal antibody from the kit. qPCR was performed in a 25 μl reaction containing 2.5 μl of the eluted DNA using iTAC SYBGreen in a Bio-Rad iCycler. The relative enrichments (after normalization against control IgG) of the indicated DNA regions were calculated using the Percent Input Method according to the manufacturer's instructions.

Compound | TET3 protein (TET3 [1]) | TET2 expression (TET2) | inhibitory activity against TET1 (TET1; in the absence of contaminating copper (II)) | inhibition of enzymatic activity of TET1 (TET1; initially reported) | TET3 protein stability (TET3 [2]) | half-life of TET3 (TET3 [2]; RAW) | half-life of TET3 (TET3 [2]; macrophages) | 5hmC in the Agrp promoter (Agrp promoter)
Nc1nc(=O)n(-c2cccc(-c3ccccc3)c2)cc1Cl [Bobcat339, 4-Amino-1-[1,1′-biphenyl]-3-yl-5-chloro-2(1H)-pyrimidinone] | downregulated | did not affect TET2 expression | negligible inhibitory activity | inhibit the enzymatic activity | less stable | ~ 80 minutes | ~ 80 min | 
leptin: adipose hormone; mouse leptin L3772-1MG or human leptin L4146-1MG, Sigma Aldrich |  |  |  |  |  |  |  | an increase in 5hmC in the Agrp promoter
